What was measured:
rat chondrocytes = assay: CCK8 cell viability / cytotoxicity assay; format: cell-based
Protocol: Rat chondrocytes were isolated using a method adapted from a previous study.9 Briefly, articular cartilage was retrieved from the knees of healthy Sprague-Dawley rats (male, n = 5, weight: 150 g). The cartilage was minced, and pieces digested with 2 mg/mL of collagenase type II (Gibco) for 2 hours. After removal of undigested tissue, the cells were cultured in DMEM/F12 (1:1) supplemented with 10% FBS. Passage 2-3 (P2-3) cells were used in the experimental studies. The bakuchiol was purchased from Selleck ([…]). Animal experiment protocol was reviewed and approved by the Institutional Review Board (IRB) of Chongqing University. Cell viability in response to BAK was evaluated using a cell counting kit-8 (CCK8) assay which was also utilized to assess cell viability. Cells were seeded at a density of 1 × 10^4 cells/well in a 24-well plate and the cytotoxicity of BAK tested using concentrations of 1 to 100 μmol/L for 3 days. The cells were then treated with 10 μmol/L BAK for 7 days. The cells were then washed with PBS and incubated in serum-free medium containing 10% CCK8 reagent for 2-3 hours at 37°C in an atmosphere containing 5% CO2. Aliquots were pipetted into a 96-well plate and absorbance at 490 nm measured using a plate reader (Bio-Rad).

chondrocytes = assay: EdU DNA proliferation assay; format: cell-based, rat; conditions: 10 and 20 µmol/L, 24 and 48 hours
Protocol: Chondrocyte proliferation was quantified using an ethynyl deoxyuridine (EdU) DNA in vitro proliferation detection kit (Guangzhou RiboBio) using flow cytometry, in accordance with the manufacturer's instructions.14 Images of cells were captured by light with microscopy using Image‐Pro Plus 6.0 software (Media Cybernetics). The number of EdU‐labelled cells was calculated from fields randomly selected in each well. Numbers of cells in each phase of the cell cycle were calculated using a BD FACS Calibur Flow Cytometer at a 488 nm excitation wavelength.

CDK1 [1] = assay: qRT-PCR gene expression of CDK1; format: cell-based, rat; conditions: 10 µmol/L, 48 hours
From the text: (§1) Cells were harvested using Trizol reagent (Invitrogen), followed by RNA isolation. Each sample was reverse transcribed to cDNA using a RevertAid First Strand cDNA Synthesis Kit (Thermo Fisher Scientific). The reverse transcription product was then used as a template to perform real‐time polymerase chain reaction (PCR) on a StepOne Plus thermal cycler (Applied Biosystems) using PowerUp™ SYBR™ Green Master Mix (Applied Biosystems), following the manufacturer's guidelines. The primers for CDK1 (F: 5′‐[…]‐3′; R: 5′‐[…]‐3′), E2F1 (F: 5′‐[…]‐3′; 5′‐[…]‐3′), MKI67 (F: 5′‐[…]‐3′; R: 5′‐[…]‐3′) were synthesized by Invitrogen. The final data were analysed by the 2^−ΔΔ ^C ^t method.

E2F1 [2] = assay: qRT-PCR gene expression of E2F1; format: cell-based, rat; conditions: 10 µmol/L, 48 hours
From the text: as §1

MKI67 [3] = assay: qRT-PCR gene expression of MKI67; format: cell-based, rat; conditions: 10 µmol/L, 48 hours
From the text: as §1

CDK1 [4] = assay: Western blotting for CDK1 protein; format: cell-based, rat; conditions: for CDK1 protein levels in chondrocytes: inhibitor 1 µmol/L added to 10 µmol/L BAK
Protocol: (§2) Western blotting analysis was performed as described previously. After separation using SDS‐PAGE then transfer to PVDF membranes, the target proteins were detected after incubating with primary antibodies for CDK1 (Abcam: ab18, 1:1000), E2F1 (Abcam: ab179445, 1:1000), phosphorylated Akt (CST: 9271, 1:1000), Akt (CST: 9272, 1:1000), phosphorylated ERK1/2 (Abcam: ab201015, 1:1000), ERK1/2 (Abcam: ab36991, 1:1000) and ERα (Santa Cruz: sc‐8005, 1:200). The membranes were then incubated with the corresponding secondary antibody at 37°C for 1 hour Finally, the immunoreactive bands were developed using SuperSignal West Femto Maximum sensitivity substrate (Thermo Fisher Scientific), and the images analysed using Quantity One Software (Bio‐Rad). The PI3K‐Akt and ERK signalling pathways were involved in the regulation of cell proliferation by BAK. Two methods of analysis were conducted to verify this. Firstly, the cells were treated with BAK or BAK plus the Akt or ERK inhibitors PI‐103 and SCH772984, respectively. Following culture of the cells, Western blotting was used to ascertain if Akt or ERK1/2 were phosphorylated and to verify the association between BAK and the activation of the Akt and ERK1/2 pathways. Secondly, ERα siRNA (ERα si‐R) was used to knockdown estrogen receptor in the target cells, which were then further cultured for 48 hours with BAK. Meanwhile, the non‐treatment group was used as the control. Finally, the protein expression levels of CDK1 and phosphorylated and total Akt (p/t‐Akt) were detected using Western blotting so as to confirm the involvement of the ERα/PI3K‐Akt/ERK axis signalling pathways in cell proliferation by BAK stimulation.

E2F1 [5] = assay: Western blotting for E2F1 protein; format: cell-based, rat; conditions: BAK 1 to 10 µmol/L for 3 d
Protocol: Western blotting analysis was performed as described previously. After separation using SDS‐PAGE then transfer to PVDF membranes, the target proteins were detected after incubating with primary antibodies for CDK1 (Abcam: ab18, 1:1000), E2F1 (Abcam: ab179445, 1:1000), phosphorylated Akt (CST: 9271, 1:1000), Akt (CST: 9272, 1:1000), phosphorylated ERK1/2 (Abcam: ab201015, 1:1000), ERK1/2 (Abcam: ab36991, 1:1000) and ERα (Santa Cruz: sc‐8005, 1:200). The membranes were then incubated with the corresponding secondary antibody at 37°C for 1 hour Finally, the immunoreactive bands were developed using SuperSignal West Femto Maximum sensitivity substrate (Thermo Fisher Scientific), and the images analysed using Quantity One Software (Bio‐Rad).

Akt = assay: Western blotting for phosphorylated/total Akt; format: cell-based, rat
Protocol: as §2, with “Following culture of the cells, Western blotting was used to ascertain if Akt or ERK1/2 were phosphorylated and to verify the association between BAK and the activation of the Akt and ERK1/2 pathways. Secondly, ERα siRNA (ERα si‐R) was used to knockdown estrogen receptor in the target cells, which were then further cultured for 48 hours with BAK. Meanwhile, the non‐treatment group was used as the control.” left out

ERK1/2 = assay: Western blotting for phosphorylated/total ERK1/2; format: cell-based, rat
Protocol: as §2, with “Following culture of the cells, Western blotting was used to ascertain if Akt or ERK1/2 were phosphorylated and to verify the association between BAK and the activation of the Akt and ERK1/2 pathways. Secondly, ERα siRNA (ERα si‐R) was used to knockdown estrogen receptor in the target cells, which were then further cultured for 48 hours with BAK. Meanwhile, the non‐treatment group was used as the control.” left out

MKI67 [6] = assay: Immunofluorescent staining of MKI67 in chondrocytes; format: cell-based, rat; conditions: 10 µmol/L, relative to control
[7] = test system: knee articular cartilage defect; assay: Rat knee articular cartilage defect model, histological evaluation; format: in vivo, Sprague‐Dawley (SD) rats; conditions: Matrigel with bakuchiol 100 µmol/L implanted locally
Protocol: (§3) Animal experiments were conducted in accordance with protocols approved by the Chongqing University Animal Care and Use Committee. For the cartilage injury model, a 0.5‐mm‐deep thickness defect was created through the articular cartilage and subchondral bone of the patellar groove of Sprague‐Dawley (SD) rats (200‐250 g) using a micro‐electrical drill. Matrigel mixed with bakuchiol (100 µmol/L) was implanted locally to fill the cartilage defect. Articular cartilage samples were harvested after 1 and 2 weeks post‐implantation for macroscopic and histological evaluation, with analysis by micro‐CT. The harvested samples were embedded in paraffin, sectioned for 10 μm thickness and then stained with haematoxylin and eosin (H&E), Safranin‐O green and Alcian blue. The sections were scored histologically in accordance with previous studies.9, 17, 18 The relative area of each defect (Figure 6: area within the dashed line) in the different groups was measured using Image J. The relative content of cartilage matrix was ascertained from the degree of Safranin staining (Red area) and GAG content by Alcian blue staining (Positive blue area). All morphological measurements were performed using Image J. The mean histological scores for each group were statistically analysed, with t tests performed between the BAK‐treated group and control. In addition, the histological immunofluorescent staining for Ki67, p‐Akt, and p‐ERK was performed to verify the in vivo mechanisms of BAK on cell proliferation.

Ki67, p‐ERK and p‐Akt = assay: Immunofluorescent staining of Ki67, p-Akt, p-ERK at the defect site; format: in vivo, Sprague‐Dawley (SD) rats; conditions: 1 and 2 weeks post-injury
Protocol: as §3, with “In addition, the histological immunofluorescent staining for Ki67, p‐Akt, and p‐ERK was performed to verify the in vivo mechanisms of BAK on cell proliferation.” left out

estrogen receptor = test system: estrogen receptor; design: method as in earlier work; conditions: ref 11 (Lim et al); cited from earlier work

SMILES: C=C[C@@](C)(/C=C/c1ccc(O)cc1)CCC=C(C)C [BAK, bakuchiol]
- cell viability vs control (rat chondrocytes; 10 µmol/L, 7 days of culture): promoted cell viability
- toxicity in the cells (rat chondrocytes; 100 µmol/L): clear toxicity
- cytotoxic effects on chondrocytes (rat chondrocytes; 1 to 100 µmol/L, after 24 hours): no cytotoxic effects
- proliferation of chondrocytes vs control (rat chondrocytes; 5, 10 and 20 µmol/L, control 0.1% DMSO): increased proliferation significantly
- EC50 (rat chondrocytes; Rattus norvegicus, Chondrocyte, CCK8, chondrocytes, 24 h, Figure 1A, read-out: EC50 of BAK): 8.9 µM
- IC50 (rat chondrocytes; Rattus norvegicus, Chondrocyte, CCK8, chondrocytes, Figure S1, read-out: IC50 (toxicity in the cells)): 48.5 µM
- BAK concentration in the medium with significant cytotoxicity (rat chondrocytes; chondrocytes): > 20 µmol/L
- cell proliferation (EdU staining) (chondrocytes): significantly promoted cell proliferation
- mRNA level of CDK1 (CDK1 [1]): significantly up‐regulated
- mRNA level of E2F1 (E2F1 [2]): significantly up‐regulated
- mRNA level of MKI67 (MKI67 [3]): significantly up‐regulated
- CDK1 protein synthesis (CDK1 [4]; 10 µmol/L BAK, Figure 4): significantly stimulated CDK1 protein synthesis
- CDK1 protein synthesis (CDK1 [4]; BAK 1 to 10 µmol/L for 3 d): stimulated CDK1 protein synthesis
- E2F1 protein (translation level) (E2F1 [5]): up‐regulated E2F1 at the translation level
- ratio of phosphorylated/total Akt (p/t-Akt) (Akt; 10 µmol/L BAK): improved the ratios
- ratio of phosphorylated/total ERK1/2 (p/t-ERK1/2) (ERK1/2; 10 µmol/L BAK): improved the ratios
- MKI67 protein synthesis (immunofluorescent staining) (MKI67 [6]): clearly promoted MKI67 protein synthesis
- histological score of the defects ([7]; 1 week): 3.60 ± 0.54
- histological score of the defects ([7]; 2 weeks): 5.40 ± 0.55
- content of GAG vs control ([7]; Alcian blue): clearly different
- expression of Ki67, p-ERK and p-Akt in vivo (Ki67, p‐ERK and p‐Akt): promoted the expression
- estrogen receptor-binding affinity (estrogen receptor): high estrogen receptor‐binding affinity

SMILES: Oc1cccc(-c2nc(N3CCOCC3)c3oc4ncccc4c3n2)c1 [PI‐103]
- CDK1 protein levels in chondrocytes (CDK1 [4]): reduced
- p/t-Akt ratio in chondrocytes (Akt; 1 µmol/L PI-103 added to 10 µmol/L BAK): reduced

SMILES: O=C(Nc1ccc2[nH]nc(-c3ccncc3)c2c1)[C@@H]1CCN(CC(=O)N2CCN(c3ccc(-c4ncccn4)cc3)CC2)C1 [SCH772984]
- CDK1 protein levels in chondrocytes (CDK1 [4]): reduced
- p/t-ERK1/2 ratio in chondrocytes (ERK1/2; 1 µmol/L SCH772984 added to 10 µmol/L BAK): reduced

— paper PMC6797515, “Effects of Bakuchiol on chondrocyte proliferation via the PI3K‐Akt and ERK1/2 pathways mediated by the estrogen receptor for promotion of the regeneration of knee articular cartilage defects” (Cell Proliferation, 2019)
